The record followed here is US20070224167A1, “Novel HCV inhibitor combinations and methods” (priority 2006, published 2007).

The test concerns replicon variants with reduced susceptibility to HCV-796, including C316Y. The experiment in a line: Susceptibility of HCV-796 resistant replicons to SCH 503034. The test is classed as cell-based. The note with it: 72 hours, vs wild-type replicon. The protocol: The antiviral activity of SCH 503034 against the replicon variants that have shown reduced susceptibility to HCV-796 is evaluated. Briefly, the replicon-containing cells are seeded in 96-well plates at a subconfluent density (7000 cells/well) in a medium containing 2% FBS without G418. SCH 503034 solubilized with 100% dimethylsulfoxide (DMSO) is prepared in a […], 2-fold dilution series, with a final DMSO concentration of 0.5% and a final volume of […]. The final concentrations for SCH 503034 are […], 6.3, 12.5, 25, 50, 100, 200, 400, 800, 1600 and 3200 nM. The plate is incubated for 72 hours at 37° C. and 5% CO2 before quantification of HCV and GAPDH RNAs.
(Replicon systems follow genome replication, usually without infectious particles.)

For the molecule `CC(C)(C)NC(=O)N[C@H](C(=O)N1C[C@H]2[C@@H]([C@H]1C(=O)NC(CC1CCC1)C(=O)C(N)=O)C2(C)C)C(C)(C)C` (stereo partly drawn) [SCH 503034, (1R,5S)—N-[3-amino-1-(cyclobutylmethyl)-2,3-dioxopropyl]-3-[2(S)-[[[(1,1-dimethylethyl)amino]carbonyl]amino]-3,3-dimethyl-1-oxobutyl]-6,6-dimethyl-3-azabicyclo[3.1.0]hexan-2(S)-carboxamide], the “Activity of SCH 503034 on HCV-796 resistant replicons” value is reported as “active”. Moreover, the “Activity of SCH 503034 on HCV-796 resistant replicons” value (listed as SCH-503034) was “equivalent inhibitory activity”.
